This note sets out measurements from patent publication US20120196854A1, “PHARMACEUTICAL COMPOSITION COMPRISING AROMATIC HETEROCYCLIC COMPOUND” (Kyowa Hakko Kirin Co., Ltd., priority 2009, published 2012).

Test [1] addresses T1, human lipocalin-prostaglandin D2 synthase (human lipocalin-PGDS) (Homo sapiens, UniProt P41222).
T1 sequence (P41222 23-190): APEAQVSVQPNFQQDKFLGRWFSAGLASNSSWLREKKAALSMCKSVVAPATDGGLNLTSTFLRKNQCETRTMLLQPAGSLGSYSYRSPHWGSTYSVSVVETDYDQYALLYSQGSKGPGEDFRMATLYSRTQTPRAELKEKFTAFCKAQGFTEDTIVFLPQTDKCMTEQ
Description: Inhibition of human lipocalin-PGDS enzyme activity. The test is classed as biochemical. The conditions noted are these: at a concentration of 10 μmol/L; read-out: inhibitory rate, human lipocalin-PGDS.

Test [2] concerns the target cyclooxygenase-1 (COX-1) (Homo sapiens, UniProt P23219). Description: Inhibition of COX-1 enzyme activity. The class given is biochemical. Particulars: at a concentration of 10 μmol/L; read-out: inhibitory rate, COX-1.
Test [3] addresses T2, cyclooxygenase-2 (COX-2) (Homo sapiens, UniProt P35354).
T2 sequence (P35354 18-604): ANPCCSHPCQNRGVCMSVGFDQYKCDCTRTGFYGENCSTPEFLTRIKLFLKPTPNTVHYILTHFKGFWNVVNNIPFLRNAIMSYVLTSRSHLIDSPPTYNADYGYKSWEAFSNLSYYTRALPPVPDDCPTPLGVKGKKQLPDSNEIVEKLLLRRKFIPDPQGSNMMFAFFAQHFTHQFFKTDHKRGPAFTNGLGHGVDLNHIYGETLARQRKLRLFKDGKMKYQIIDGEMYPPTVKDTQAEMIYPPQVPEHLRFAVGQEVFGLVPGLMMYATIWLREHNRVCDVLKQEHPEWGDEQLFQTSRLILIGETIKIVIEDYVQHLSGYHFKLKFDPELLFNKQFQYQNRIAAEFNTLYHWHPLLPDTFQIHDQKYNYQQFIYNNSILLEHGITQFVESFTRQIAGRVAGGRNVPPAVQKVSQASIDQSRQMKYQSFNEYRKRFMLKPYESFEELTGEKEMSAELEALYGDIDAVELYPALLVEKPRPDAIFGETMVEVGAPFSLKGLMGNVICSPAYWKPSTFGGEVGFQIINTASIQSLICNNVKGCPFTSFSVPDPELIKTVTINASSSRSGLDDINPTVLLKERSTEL
Description: Inhibition of COX-2 enzyme activity. The class given is biochemical. The conditions noted are these: at a concentration of 10 μmol/L; read-out: inhibitory rate, COX-2.

Test [4] relates to PGD2 production in mouse ear. Kind of test: Inhibitory effect on PGD2 production in mouse ear caused by allergic reaction. The test is classed as in vivo. Particulars: 10 mg/kg orally, 1 hour before inducing antigen-antibody reaction; BALB/c mice. How it is done:
A test of PGD2 production in the mouse ear caused by allergic reaction was conducted according to the evaluation method of passive cutaneous anaphylaxis in the mouse ear by Inagaki et al. (Int.Arch.AllergyAppl. Immunol., 1988, 86 (3), 325-30) with some alteration. […]
One hour after the induction of antigen-antibody reaction, the mice were killed by cervical dislocation and the ears were cut off with scissors. […] The harvested pieces of ear tissue were immediately frozen in liquid nitrogen, and preserved at −80° C. until measurement of the quantity of PGD2.
The quantity of PGD2 was determined in the following manner. […]

Sequence of cyclooxygenase-1 (COX-1) (P23219 24-599, species assumed): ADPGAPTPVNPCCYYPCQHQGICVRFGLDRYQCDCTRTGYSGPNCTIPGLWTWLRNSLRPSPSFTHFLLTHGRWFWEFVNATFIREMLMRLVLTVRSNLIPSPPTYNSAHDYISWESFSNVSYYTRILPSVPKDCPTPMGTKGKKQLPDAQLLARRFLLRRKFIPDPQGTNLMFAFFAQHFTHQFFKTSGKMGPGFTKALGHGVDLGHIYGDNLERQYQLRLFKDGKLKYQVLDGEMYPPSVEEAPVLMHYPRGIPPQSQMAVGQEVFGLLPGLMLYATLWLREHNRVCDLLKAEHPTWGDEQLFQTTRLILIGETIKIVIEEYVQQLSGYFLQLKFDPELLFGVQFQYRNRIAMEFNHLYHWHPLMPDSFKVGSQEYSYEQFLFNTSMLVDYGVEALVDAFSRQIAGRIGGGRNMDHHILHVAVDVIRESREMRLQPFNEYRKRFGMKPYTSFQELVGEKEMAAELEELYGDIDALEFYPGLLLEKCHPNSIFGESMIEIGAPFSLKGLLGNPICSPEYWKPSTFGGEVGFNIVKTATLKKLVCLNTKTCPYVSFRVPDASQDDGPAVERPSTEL

`O=C(O)c1cc(-c2ccco2)nc2ccc3nn(-c4ccccc4)nc3c12` [Compound 133, 7-(furan-2-yl)-2-phenyl-2H-[1,2,3]triazolo[4,5-f]quinoline-9-carboxylic acid]: the inhibition at 10 µM in test [1], in test [2] and in test [3] was no more than 20% in each case. For the same compound, the “inhibition of PGD2 production in mouse ear caused by allergic reaction” value in test [4] was found to be 88%.
